Data as given in patent US7351882B2, “Canola line 45H24” (Pioneer Hi-Bred International, Inc., priority 2005, dated 2008).

System: Brassica napus variety 45H24
Assay: Herbicide resistance rating of canola variety 45H24 at standard recommended application rates
Type: in vivo
Conditions: for Herbicide resistance (description): result in words
Description: Herbicide Resistance: Resistance to various herbicides when applied at standard recommended application rates is expressed on a scale of 1 (resistant), 2 (tolerant), or 3 (susceptible).

O=C(O)CNCP(=O)(O)O [Glyphosate]
Herbicide resistance (description): resistant
Herbicide resistance (description) (listed as glyphosate): resistance
Herbicide resistance (mean rating) (scale 0 = not tested, 1 = resistant, 2 = tolerant, 3 = susceptible): 1.00
